This passage reports IC50 and Ki results from ChEMBL document CHEMBL1909046, “DrugMatrix in vitro pharmacology data”.

As usually defined, the IC50 is the concentration at which inhibition is half-maximal. For orientation: Ki means a dissociation constant, usually derived from enzyme kinetics or from competition with a known ligand.

Structures are written as SMILES.

Experiment [1] deals with T1, Alpha-2A adrenergic receptor (Homo sapiens, UniProt P08913).
T1 sequence (P08913 whole entry): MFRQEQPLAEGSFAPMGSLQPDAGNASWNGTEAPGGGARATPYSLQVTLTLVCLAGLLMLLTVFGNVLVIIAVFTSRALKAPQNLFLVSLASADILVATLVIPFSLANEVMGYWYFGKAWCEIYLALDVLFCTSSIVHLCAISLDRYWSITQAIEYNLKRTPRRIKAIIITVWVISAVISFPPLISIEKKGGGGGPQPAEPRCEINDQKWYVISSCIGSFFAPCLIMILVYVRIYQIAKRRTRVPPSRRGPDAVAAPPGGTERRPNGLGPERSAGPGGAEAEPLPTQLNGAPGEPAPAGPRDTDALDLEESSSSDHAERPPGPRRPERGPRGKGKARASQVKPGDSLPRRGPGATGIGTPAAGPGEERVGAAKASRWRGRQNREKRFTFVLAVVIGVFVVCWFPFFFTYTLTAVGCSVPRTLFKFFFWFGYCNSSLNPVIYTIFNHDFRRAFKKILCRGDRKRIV
In kind it is cell membranes, Sf9, Membrane. The following applies: for Ki: read-out: Ki.

Experiment [2] deals with Mitogen-activated protein kinase 3 (Homo sapiens, UniProt P27361). The experiment can be described thus: DRUGMATRIX: Protein Serine/Threonine Kinase, ERK1 enzyme inhibition (substrate: Myelin Basic Protein). The settings on record: Not Active = under 50% inhibition at 10 µM. On the set-up: species or system Escherichia coli.
Sequence of Mitogen-activated protein kinase 3 (P27361 whole entry): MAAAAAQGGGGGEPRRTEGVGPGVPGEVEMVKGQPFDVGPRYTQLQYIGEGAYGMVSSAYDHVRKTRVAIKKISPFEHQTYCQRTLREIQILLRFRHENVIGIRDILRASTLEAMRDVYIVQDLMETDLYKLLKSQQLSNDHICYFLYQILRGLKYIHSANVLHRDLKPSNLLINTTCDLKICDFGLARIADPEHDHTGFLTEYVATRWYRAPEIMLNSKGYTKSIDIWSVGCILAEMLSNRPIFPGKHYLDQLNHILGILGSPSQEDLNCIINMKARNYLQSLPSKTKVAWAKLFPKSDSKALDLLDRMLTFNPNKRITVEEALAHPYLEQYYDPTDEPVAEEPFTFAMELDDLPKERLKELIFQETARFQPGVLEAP
For the next experiment, the target named is Substance-P receptor (Homo sapiens, UniProt P25103). The experiment is classed as cell membranes, CHO, Membrane. The settings on record: cho. Also: in other assays of this panel Not Active means under 50% inhibition at 10 µM.
Sequence of Substance-P receptor (P25103 whole entry): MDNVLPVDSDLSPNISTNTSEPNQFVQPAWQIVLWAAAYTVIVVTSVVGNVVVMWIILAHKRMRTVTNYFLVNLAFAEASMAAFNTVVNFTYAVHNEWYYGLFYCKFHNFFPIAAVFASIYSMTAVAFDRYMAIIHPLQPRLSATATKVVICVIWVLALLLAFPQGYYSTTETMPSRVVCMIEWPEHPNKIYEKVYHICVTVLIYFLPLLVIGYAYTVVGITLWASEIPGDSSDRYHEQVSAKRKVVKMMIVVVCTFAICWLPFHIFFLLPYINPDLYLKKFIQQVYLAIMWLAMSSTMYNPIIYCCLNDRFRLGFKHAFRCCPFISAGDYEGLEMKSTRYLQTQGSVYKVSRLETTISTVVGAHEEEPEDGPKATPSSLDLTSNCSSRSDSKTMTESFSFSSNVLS
For experiment [3], the target named is Sigma non-opioid intracellular receptor 1 (Homo sapiens, UniProt Q99720). Briefly: DRUGMATRIX: Sigma1 radioligand binding (ligand: [3H] Haloperidol). The settings on record: Not Active = under 50% inhibition at 10 µM; for Ki: read-out: Ki. The experiment is classed as cell membranes, Jurkat, Membrane.
Sequence of Sigma non-opioid intracellular receptor 1 (Q99720 whole entry): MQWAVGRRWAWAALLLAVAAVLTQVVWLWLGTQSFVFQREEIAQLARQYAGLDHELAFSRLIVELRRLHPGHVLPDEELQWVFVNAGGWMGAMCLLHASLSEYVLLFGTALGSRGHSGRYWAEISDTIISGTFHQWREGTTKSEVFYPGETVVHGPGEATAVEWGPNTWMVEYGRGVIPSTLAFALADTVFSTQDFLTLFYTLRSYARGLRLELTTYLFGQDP
Experiment [4] can be described thus: DRUGMATRIX: Glutamate, NMDA, Agonism radioligand binding (ligand: [3H] CGP-39653). In kind it is cell membranes, Rattus norvegicus, Wistar, Cerebral cortex, Membrane. The following applies: Not Active = under 50% inhibition at 10 µM.
The target of the next experiment is T2, Calcitonin receptor (Homo sapiens, UniProt P30988). Also: in other assays of this panel Not Active means under 50% inhibition at 10 µM.
T2 sequence (P30988 whole entry): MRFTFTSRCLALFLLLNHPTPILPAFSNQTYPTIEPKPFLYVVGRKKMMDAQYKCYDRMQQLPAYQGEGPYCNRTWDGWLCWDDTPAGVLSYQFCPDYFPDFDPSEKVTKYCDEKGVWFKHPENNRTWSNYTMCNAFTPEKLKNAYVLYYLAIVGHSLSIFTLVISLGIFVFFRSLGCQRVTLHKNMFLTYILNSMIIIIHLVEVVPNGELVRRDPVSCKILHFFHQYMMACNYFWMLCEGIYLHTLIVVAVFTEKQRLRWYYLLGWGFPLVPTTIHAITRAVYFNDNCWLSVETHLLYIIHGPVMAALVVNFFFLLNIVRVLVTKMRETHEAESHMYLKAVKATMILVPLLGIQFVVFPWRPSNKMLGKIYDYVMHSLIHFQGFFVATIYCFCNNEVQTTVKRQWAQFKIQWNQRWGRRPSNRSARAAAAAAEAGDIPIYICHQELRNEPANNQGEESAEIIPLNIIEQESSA
The experiment is classed as cell membranes, Membrane. The following applies: t47d.

On to `Nc1cc(N2CCCCC2)nc(N)[n+]1[O-]` [MINOXIDIL], for which the 50% inhibitory concentration (IC50) result (in experiment [1] (sf9); in experiment [2]; on Substance-P receptor; in experiment [3] (jurkat); in experiment [4]; at Calcitonin receptor) was “Not Active” throughout. The Ki result in experiment [4] is listed as “Not Active”.
On to `CO[C@H]1/C=C/O[C@@]2(C)Oc3c(C)c(O)c4c(O)c(c(/C=N/N5CCN(C6CCCC6)CC5)c(O)c4c3C2=O)NC(=O)/C(C)=C\C=C\[C@H](C)[C@H](O)[C@@H](C)[C@@H](O)[C@@H](C)[C@H](OC(C)=O)[C@@H]1C` [RIFAPENTINE], for which the IC50 result (in experiment [1] (sf9); in experiment [2]; against Substance-P receptor; in experiment [3] (jurkat); in experiment [4]; at Calcitonin receptor) was “Not Active” each time. The Ki result in experiment [4] is given as “Not Active”.
Turning to `CCCCOc1cc(CC2CNC(=O)N2)ccc1OC` (stereo not drawn) [RO-201724], the IC50 result (in experiment [1] (sf9); in experiment [2]; against Substance-P receptor; in experiment [3] (jurkat); in experiment [4]; at Calcitonin receptor) was “Not Active” in each case. Further, the Ki entry in experiment [4] is listed as “Not Active”.
As for `CC[C@@H](C(=O)[C@@H](C)[C@@H](O)[C@H](C)[C@@H]1O[C@@H]([C@@H](CC)C(=O)O)CC[C@@H]1C)[C@H]1O[C@]2(C=C[C@@H](O)[C@]3(CC[C@@](C)([C@H]4CC[C@](O)(CC)[C@H](C)O4)O3)O2)[C@H](C)C[C@@H]1C` [SALINOMYCIN], the IC50 result (in experiment [1] (sf9); in experiment [2]; on Substance-P receptor; in experiment [3] (jurkat); in experiment [4]; on Calcitonin receptor) was “Not Active” throughout. Further, the Ki entry in experiment [4] was “Not Active”.
Take `O=C(Oc1ccccc1C(=O)O)c1ccccc1O` [SALSALATE]: the IC50 result (in experiment [1] (sf9); in experiment [2]; against Substance-P receptor; in experiment [3] (jurkat); in experiment [4]; at Calcitonin receptor) was “Not Active” in each case. Also, the Ki result in experiment [4] is given as “Not Active”.
Take `O=C(O)c1cn(-c2ccc(F)cc2)c2cc(N3CCNCC3)c(F)cc2c1=O` [SARAFLOXACIN]: the concentration for half-maximal inhibition (IC50) result (in experiment [1] (sf9); in experiment [2]; against Substance-P receptor; in experiment [3] (jurkat); in experiment [4]; at Calcitonin receptor) was “Not Active” throughout. For the same compound, in experiment [4], the Ki entry was “Not Active”.
For the compound `CC(C)NCC(O)c1ccc(NS(C)(=O)=O)cc1` (stereo not drawn) [SOTALOL], the IC50 entry (in experiment [1] (sf9); in experiment [2]; against Substance-P receptor; in experiment [3] (jurkat); in experiment [4]; at Calcitonin receptor) was “Not Active” throughout. Also, the Ki result in experiment [4] is recorded as “Not Active”.
For `O.O.O.O.O.O.[Cl-].[Cl-].[Sr+2]` [STRONTIUM CHLORIDE HEXAHYDRATE], the IC50 result (in experiment [1] (sf9); in experiment [2]; against Substance-P receptor; in experiment [3] (jurkat); in experiment [4]; on Calcitonin receptor) was “Not Active” in each case. In addition, the inhibitory constant (Ki) entry in experiment [4] is on record as “Not Active”.
For the compound `O=C1C(CC[S+]([O-])c2ccccc2)C(=O)N(c2ccccc2)N1c1ccccc1` (stereo not drawn) [SULFINPYRAZONE], the IC50 entry (in experiment [1] (sf9); in experiment [2]; on Substance-P receptor; in experiment [3] (jurkat); in experiment [4]; at Calcitonin receptor) was “Not Active” in each case. Moreover, the Ki entry in experiment [4] is “Not Active”.
For the compound `NC(=O)N1C(=O)/C(=C(\O)c2cccs2)c2cc(Cl)ccc21` [TENIDAP], the IC50 result (in experiment [1] (sf9); in experiment [2]; against Substance-P receptor; in experiment [3] (jurkat); in experiment [4]; on Calcitonin receptor) was “Not Active” in each case. In addition, the Ki result in experiment [4] is on record as “Not Active”.
Turning to `COc1cc2nc(N3CCN(C(=O)C4CCCO4)CC3)nc(N)c2cc1OC` (stereo not drawn) [TERAZOSIN], the IC50 in experiment [1] (read-out: IC50) was 13800 nM; in experiment [2], “Not Active”; at Substance-P receptor it was “Not Active”; in experiment [3] (jurkat), “Not Active”; in experiment [4] it was “Not Active”; on Calcitonin receptor it was “Not Active”. The Ki in experiment [1] was 5190 nM; in experiment [4] it was “Not Active”.
As to `CN(C/C=C/C#CC(C)(C)C)Cc1cccc2ccccc12` [TERBINAFINE], the IC50 in experiment [1] (read-out: IC50) was 5700 nM; in experiment [2] it was “Not Active”; at Substance-P receptor, “Not Active”; in experiment [3] (read-out: IC50) it was 560 nM; in experiment [4], “Not Active”; at Calcitonin receptor it was “Not Active”. Besides, the values for the Ki in experiment [1], in experiment [3] and in experiment [4] were 2140 nM, 235 nM and “Not Active”, respectively.
In the case of `CCCCNc1ccc(C(=O)OCCN(C)C)cc1` [TETRACAINE], the IC50 entry in experiment [1] (sf9) was “Not Active”; in experiment [2] it was “Not Active”; at Substance-P receptor it was “Not Active”; in experiment [3] (read-out: IC50), 1670 nM; in experiment [4], “Not Active”; at Calcitonin receptor it was “Not Active”. Also, the Ki in experiment [3] is 703 nM; in experiment [4] it was “Not Active”.
`Cn1c(=O)c2nc[nH]c2n(C)c1=O.O` [THEOPHYLLINE]: the IC50 entry (in experiment [1] (sf9); in experiment [2]; at Substance-P receptor; in experiment [3] (jurkat); in experiment [4]; at Calcitonin receptor) was “Not Active” each time. The Ki result in experiment [4] is given as “Not Active”.
As for `CS(=O)(=O)c1ccc([C@@H](O)[C@@H](CO)NC(=O)C(Cl)Cl)cc1` [THIAMPHENICOL], the IC50 entry (in experiment [1] (sf9); in experiment [2]; on Substance-P receptor; in experiment [3] (jurkat); in experiment [4]; at Calcitonin receptor) was “Not Active” in each case. The Ki result in experiment [4] is “Not Active”.
In the case of `CCN(CC)CCNC(=O)c1cc(S(C)(=O)=O)ccc1OC` [TIAPRIDE], the IC50 in experiment [1] (read-out: IC50) is 2080 nM; in experiment [2], “Not Active”; against Substance-P receptor, “Not Active”; in experiment [3] (jurkat), “Not Active”; in experiment [4] it was “Not Active”; on Calcitonin receptor, “Not Active”. The results for the Ki in experiment [1] and in experiment [4] were 779 nM and “Not Active”, respectively.
Turning to `NC1CCN(c2nc3c(cc2F)c(=O)c(C(=O)O)cn3-c2ccc(F)cc2F)C1` (stereo not drawn) [TOSUFLOXACIN], the IC50 result (in experiment [1] (sf9); in experiment [2]; against Substance-P receptor; in experiment [3] (jurkat); in experiment [4]; at Calcitonin receptor) was “Not Active” each time. Also, the Ki entry in experiment [4] was “Not Active”.
With `O=C(Nc1ccc(Br)cc1)c1cc(Br)cc(Br)c1O` [TRIBROMSALAN], the IC50 entry (in experiment [1] (sf9); in experiment [2]; at Substance-P receptor; in experiment [3] (jurkat); in experiment [4]; at Calcitonin receptor) was “Not Active” in each case. The Ki result in experiment [4] is on record as “Not Active”.
For `CC(c1cc2ccccc2s1)N(O)C(N)=O` (stereo not drawn) [ZILEUTON], the IC50 entry (in experiment [1] (sf9); in experiment [2]; at Substance-P receptor; in experiment [3] (jurkat); in experiment [4]; at Calcitonin receptor) was “Not Active” each time. For the same compound, the Ki result in experiment [4] is “Not Active”.
